One experiment concerns the target mouse DGAT1 (Mus musculus (Mouse), UniProt Q9Z2A7). As to the kind of experiment: Radiometric DGAT1 assay, mouse liver microsomes. The following applies: mouse liver microsomes having mouse DGAT1 activity. It counts as biochemical. The source says:
(§1) A second source of DGAT1 activity was human or mouse liver microsomes.
In general terms: Liver microsomes are vesicles of endoplasmic reticulum, rich in cytochrome P450 enzymes.

The target in experiment [1] is T1, human DGAT1 (Homo sapiens (Human), UniProt O75907). As to the kind of experiment: biochemical.
Experimental: For this assay, a source of DGAT1 was needed. In that regard, a commercially available plasmid for expression of DGAT1 (e.g., pCMV6-recombinant human DGAT1 plasmid) was transfected for 24 hours in Hep3B cells. After transfection of the plasmid, human DGAT-1 expression was analyzed by Western blot or RT-PCR using whole cell extracts. […] Human and mouse DGAT activity were determined as follows.
The plates were sealed, incubated overnight and counted the next morning on a liquid scintillation counter and luminometer.
DGAT1 catalyzes the transfer of the radiolabelled decanoyl group onto the sn-3 position of didecanoyl glycerol. The resultant radiolabeled tridecanoyl glycerol (tricaprin) preferentially binds to the hydrophobic coating on the phospholipid-coated radiometric assay plate. The proximity of the radiolabeled product to the solid scintillant incorporated into the bottom of the radiometric assay plate induced for release from the scintillant, which was measured in the liquid scintillation counter and luminometer.
IC50 values of the compounds were determined from concentration-dependent inhibition curves by using commercially available software.
The target in experiment [2] is T1, human DGAT1. Put plainly: Radiometric DGAT1 assay, human liver microsomes. It counts as biochemical. The following applies: Source of human DGAT activity B = human liver microsomes.
Excerpt: as §1

One may read the IC50 as the point on the concentration scale where inhibition reaches its midpoint. Low values mean higher potency, high ones lower potency.

T1 sequence (O75907 whole entry): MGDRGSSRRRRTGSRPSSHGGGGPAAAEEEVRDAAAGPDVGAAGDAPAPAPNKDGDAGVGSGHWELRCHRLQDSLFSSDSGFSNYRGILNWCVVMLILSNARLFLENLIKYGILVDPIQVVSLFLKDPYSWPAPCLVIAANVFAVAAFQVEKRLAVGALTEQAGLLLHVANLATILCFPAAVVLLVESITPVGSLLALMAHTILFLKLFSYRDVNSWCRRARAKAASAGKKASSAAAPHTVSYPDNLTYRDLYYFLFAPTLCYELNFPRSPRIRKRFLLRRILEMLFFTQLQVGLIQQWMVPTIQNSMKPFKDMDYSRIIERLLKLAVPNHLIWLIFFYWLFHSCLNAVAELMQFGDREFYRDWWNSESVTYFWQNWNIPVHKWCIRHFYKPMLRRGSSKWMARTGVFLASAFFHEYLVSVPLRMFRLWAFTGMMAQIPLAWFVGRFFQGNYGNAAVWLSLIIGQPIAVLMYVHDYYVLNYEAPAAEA
Sequence of mouse DGAT1 (Q9Z2A7 whole entry): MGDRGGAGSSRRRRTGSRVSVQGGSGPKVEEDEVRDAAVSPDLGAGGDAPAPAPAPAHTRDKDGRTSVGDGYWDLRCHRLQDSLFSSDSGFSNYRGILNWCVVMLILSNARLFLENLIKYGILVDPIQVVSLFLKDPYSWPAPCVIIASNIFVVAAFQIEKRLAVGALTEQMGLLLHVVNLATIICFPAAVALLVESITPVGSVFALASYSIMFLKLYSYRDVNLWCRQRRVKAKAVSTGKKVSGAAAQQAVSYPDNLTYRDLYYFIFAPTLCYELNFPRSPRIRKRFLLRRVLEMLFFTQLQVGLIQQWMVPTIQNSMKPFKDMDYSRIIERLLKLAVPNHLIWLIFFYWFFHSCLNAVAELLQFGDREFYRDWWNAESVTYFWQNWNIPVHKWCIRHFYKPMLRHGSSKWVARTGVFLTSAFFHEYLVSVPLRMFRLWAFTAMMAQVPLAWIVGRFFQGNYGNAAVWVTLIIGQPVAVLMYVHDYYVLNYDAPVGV

Take `O=C(O)C[C@H]1CC[C@H](c2ccc(-c3ccc4nc(C(=O)NCc5ccc(OC(F)(F)F)cc5)cn4c3)cc2)CC1` [Compound 1, 2-((1r,4r)-4-(4-(2-((4-(Trifluoromethoxy)benzyl)carbamoyl)imidazo[1,2-a]pyridin-6-yl)phenyl)cyclohexyl)acetic acid]: the IC50 against mouse DGAT1 is less than 50 nM; against human DGAT1 [1] it was less than 10 nM.

Consider `O=C(O)C[C@H]1CC[C@H](c2ccc(-c3ccc4nc(C(=O)Nc5ccc(C(F)(F)F)cc5)cn4c3)cc2)CC1` [Compound 2, 2-((1r,4r)-4-(4-(2-((4-(Trifluoromethyl)phenyl)carbamoyl)imidazo[1,2-a]pyridin-6-yl)phenyl)-cyclohexyl)acetic acid], for which the IC50 against mouse DGAT1 is less than 200 nM; against human DGAT1 [1], less than 10 nM.

As to `O=C(O)C[C@H]1CC[C@H](c2ccc(-c3ccc4nc(C(=O)Nc5ccc(OC(F)(F)F)cc5)cn4c3)cc2)CC1` [Compound 3, 2-((1r,4r)-4-(4-(2-((4-(Trifluoromethoxy)phenyl)carbamoyl)imidazo[1,2-a]pyridin-6-yl)-phenyl)cyclohexyl)acetic acid], the IC50 is less than 75 nM at mouse DGAT1 and less than 10 nM against human DGAT1 [1].

`O=C(O)C[C@H]1CC[C@H](c2ccc(-c3ccc4nc(C(=O)NCc5ccc(C(F)(F)F)cc5)cn4c3)cc2)CC1` [Compound 4, 2-((1r,4r)-4-(4-(2-((4-(Trifluoromethyl)benzyl)carbamoyl)imidazo[1,2-a]pyridin-6-yl)-phenyl)cyclohexyl)acetic acid]: the IC50 is less than 150 nM against human DGAT1 [2] and less than 75 nM against mouse DGAT1.

Consider `O=C(O)C[C@H]1CC[C@H](c2ccc(-c3ccc4nc(C(=O)Nc5cccc(OC(F)(F)F)c5)cn4c3)cc2)CC1` [Compound 5, 2-((1r,4r)-4-(4-(2-((3-(Trifluoromethoxy)phenyl)carbamoyl)imidazo[1,2-a]pyridin-6-yl)-phenyl)cyclohexyl)acetic acid], for which the results for the IC50 against human DGAT1 [2] and at mouse DGAT1 were less than 100 nM and less than 125 nM, respectively.

`O=C(O)C[C@H]1CC[C@H](c2ccc(-c3ccc4nc(C(=O)Nc5cccc(C(F)(F)F)c5)cn4c3)cc2)CC1` [Compound 6, 2-((1r,4r)-4-(4-(2-((3-(Trifluoromethyl)phenyl)carbamoyl)imidazo[1,2-a]pyridin-6-yl)-phenyl)cyclohexyl)acetic acid]: the IC50 on human DGAT1 [2] is less than 75 nM; on mouse DGAT1, less than 150 nM.

Turning to `O=C(O)C[C@H]1CC[C@H](c2ccc(-c3ccc4nc(C(=O)NCc5cccc(OC(F)(F)F)c5)cn4c3)cc2)CC1` [Compound 7, 2-((1r,4r)-4-(4-(2-((3-(Trifluoromethoxy)benzyl)carbamoyl)imidazo[1,2-a]pyridin-6-yl)-phenyl)cyclohexyl)acetic acid], the IC50 was less than 175 nM against human DGAT1 [2] and less than 100 nM at mouse DGAT1.

For the compound `CC(C)(C)c1ccc(CNC(=O)c2cn3cc(-c4ccc([C@H]5CC[C@H](CC(=O)O)CC5)cc4)ccc3n2)cc1` [Compound 8, 2-((1r,4r)-4-(4-(2-((4-(tert-Butyl)benzyl)carbamoyl)imidazo[1,2-a]pyridin-6-yl)phenyl)-cyclohexyl)acetic acid], the IC50 was less than 125 nM on human DGAT1 [2] and less than 50 nM on mouse DGAT1.

On to `COc1ccc(CNC(=O)c2cn3cc(-c4ccc([C@H]5CC[C@H](CC(=O)O)CC5)cc4)ccc3n2)cc1OC` [Compound 23, 2-((1r,4r)-4-(4-(2-((3,4-Dimethoxybenzyl)carbamoyl)imidazo[1,2-a]pyridin-6-yl)phenyl)-cyclohexyl)acetic acid], for which the IC50 against human DGAT1 [2] and against mouse DGAT1 was less than 25 nM each time.

As to `O=C(O)C[C@H]1CC[C@H](c2ccc(-c3ccc4nc(C(=O)NCc5ccccc5)cn4c3)cc2)CC1` [Compound 31, 2-((1r,4r)-4-(4-(2-(Benzylcarbamoyl)imidazo[1,2-a]pyridin-6-yl)phenyl)cyclohexyl)acetic acid], the IC50 is less than 50 nM on human DGAT1 [2] and less than 100 nM on mouse DGAT1.

As to `COc1ccccc1CNC(=O)c1cn2cc(-c3ccc([C@H]4CC[C@H](CC(=O)O)CC4)cc3)ccc2n1` [Compound 41, 2-((1r,4r)-4-(4-(2-((2-Methoxybenzyl)carbamoyl)imidazo[1,2-a]pyridin-6-yl)phenyl)cyclohexyl)acetic acid], the IC50 on human DGAT1 [2] is less than 25 nM; against mouse DGAT1 it was less than 75 nM.

On to `O=C(O)CC1CCC(c2ccc(-c3ccc4nc(C(=O)NCc5c(F)cc(Cl)cc5F)cn4c3)cc2)CC1` (stereo not shown) [Compound 42, 2-((1s,4s)-4-(4-(2-((4-chloro-2,6-difluorobenzyl)carbamoyl)imidazo[1,2-a]pyridin-6-yl)phenyl)cyclohexyl)acetic acid], for which the IC50 on human DGAT1 [2] and on mouse DGAT1 was less than 10 nM throughout.

Regarding `Cc1cc(Cl)cc(Cl)c1CNC(=O)c1cn2cc(-c3ccc(C4CCC(CC(=O)O)CC4)cc3)ccc2n1` (stereo not shown) [Compound 43, 2-((1s,4s)-4-(4-(2-((2,4-Dichloro-6-methylbenzyl)carbamoyl)imidazo[1,2-a]pyridin-6-yl)phenyl)cyclohexyl)acetic acid], the IC50 on human DGAT1 [2] and against mouse DGAT1 was less than 10 nM throughout.

For `Cc1cc(C)c(CNC(=O)c2cn3cc(-c4ccc(C5CCC(CC(=O)O)CC5)cc4)ccc3n2)c(C)c1` (stereo not shown) [Compound 44, 2-((1s,4s)-4-(4-(2-((2,4,6-Trimethylbenzyl)carbamoyl)imidazo[1,2-a]pyridin-6-yl)phenyl)cyclohexyl)acetic acid], the IC50 at human DGAT1 [2] was less than 25 nM; at mouse DGAT1, less than 10 nM.

Consider `Cc1ccc(CNC(=O)c2nc3ccc(-c4ccc(C5CCC(CC(=O)O)CC5)cc4)cn3n2)cc1` (stereo not shown) [Compound 45, 2-((1s,4s)-4-(4-(2-((4-Methylbenzyl)carbamoyl)-[1,2,4]triazolo[1,5-a]pyridin-6-yl)phenyl)cyclohexyl)acetic acid], for which the IC50 against human DGAT1 [2] and at mouse DGAT1 was less than 50 nM throughout.

As for `CC(C)(C)c1ccc(CNC(=O)c2cn3cc(-c4ccc([C@H]5CC[C@H](CC(=O)O)CC5)cc4)sc3n2)cc1` [Compound 46, 2-((1r,4r)-4-(4-(6-((4-(tert-Butyl)benzyl)carbamoyl)imidazo[2,1-b]thiazol-2-yl)phenyl)-cyclohexyl)acetic acid], the IC50 on human DGAT1 [2] was less than 1 nM; against mouse DGAT1 it was less than 50 nM.

Consider `O=C(O)C[C@H]1CC[C@H](c2ccc(-c3cn4cc(C(=O)NCc5cccc(OC(F)(F)F)c5)nc4s3)cc2)CC1` [Compound 50, 2-((1r,4r)-4-(4-(6-((3-(Trifluoromethoxy)benzyl)carbamoyl)imidazo[2,1-b]thiazol-2-yl)-phenyl)cyclohexyl)acetic acid], for which the IC50 against human DGAT1 [2] is less than 50 nM; against mouse DGAT1, less than 25 nM.

`O=C(O)C[C@H]1CC[C@H](c2ccc(-c3cn4cc(C(=O)NCc5cc(OC(F)(F)F)ccc5F)nc4s3)cc2)CC1` [Compound 51, 2-((1r,4r)-4-(4-(6-((2-Fluoro-5-(trifluoromethoxy)benzyl)carbamoyl)imidazo[2,1-b]thiazol-2-yl)phenyl)cyclohexyl)acetic acid]: the IC50 on human DGAT1 [2] and against mouse DGAT1 was less than 50 nM each time.

As to `O=C(O)C[C@H]1CC[C@H](c2ccc(-c3cn4cc(C(=O)Nc5cccc(OC(F)(F)F)c5)nc4s3)cc2)CC1` [Compound 52, 2-((1r,4r)-4-(4-(6-((3-(Trifluoromethoxy)phenyl)carbamoyl)imidazo[2,1-b]thiazol-2-yl)-phenyl)cyclohexyl)acetic acid], the half-inhibitory concentration (IC50) on human DGAT1 [2] and on mouse DGAT1 was less than 10 nM throughout.

`CC(C)c1ccc(CNC(=O)c2cn3cc(-c4ccc([C@H]5CC[C@H](CC(=O)O)CC5)cc4)sc3n2)cc1` [Compound 53, 2-((1r,4r)-4-(4-(6-((4-Isopropylbenzyl)carbamoyl)imidazo[2,1-b]thiazol-2-yl)phenyl)cyclohexyl)acetic acid]: the IC50 on human DGAT1 [2] was less than 25 nM; against mouse DGAT1 it was less than 100 nM.

`O=C(O)C[C@H]1CC[C@H](c2ccc(-c3cn4cc(C(=O)NC5(c6cc(F)ccc6F)CC5)nc4s3)cc2)CC1` [Compound 54, 2-((1r,4r)-4-(4-(6-((1-(2,5-Difluorophenyl)cyclopropyl)carbamoyl)imidazo[2,1-b]thiazol-2-yl)phenyl)cyclohexyl)acetic acid]: the IC50 at human DGAT1 [2] is less than 10 nM; against mouse DGAT1, less than 25 nM.

As for `COc1ccc(OC(F)(F)F)cc1CNC(=O)c1cn2cc(-c3ccc([C@H]4CC[C@H](CC(=O)O)CC4)cc3)sc2n1` [Compound 55, 2-((1r,4r)-4-(4-(6-((2-Methoxy-5-(trifluoromethoxy)benzyl)carbamoyl)imidazo[2,1-b]-thiazol-2-yl)phenyl)cyclohexyl)acetic acid], the IC50 was less than 10 nM on human DGAT1 [2] and less than 25 nM at mouse DGAT1.

Turning to `O=C(O)C[C@H]1CC[C@H](c2ccc(-c3cn4cc(C(=O)NCc5ccc(OC(F)(F)F)cc5)nc4s3)cc2)CC1` [Compound 56, 2-((1r,4r)-4-(4-(6-((4-(Trifluoromethoxy)benzyl)carbamoyl)imidazo[2,1-b]thiazol-2-yl)-phenyl)cyclohexyl)acetic acid], the IC50 at human DGAT1 [2] is less than 10 nM; on mouse DGAT1, less than 50 nM.

As for `CC(C)(C(=O)O)[C@H]1CC[C@H](c2ccc(-c3ccc4nc(C(=O)NCc5ccccc5)cn4c3)cc2)CC1` [Compound 65, 2-((1r,4r)-4-(4-(2-(Benzylcarbamoyl)imidazo[1,2-a]pyridin-6-yl)phenyl)cyclohexyl)-2-methylpropanoic acid], the values for the IC50 on human DGAT1 [2] and on mouse DGAT1 were less than 10 nM and less than 125 nM, respectively.

As to `CC(C)(C(=O)O)[C@H]1CC[C@H](c2ccc(-c3ccc4nc(C(=O)NCc5ccc(OC(F)(F)F)cc5)cn4c3)cc2)CC1` [Compound 66, 2-Methyl-2-((1r,4r)-4-(4-(2-((4-(trifluoromethoxy)benzyl)carbamoyl)imidazo[1,2-a]pyridin-6-yl)phenyl)cyclohexyl)propanoic acid], the IC50 at human DGAT1 [2] is less than 10 nM; at mouse DGAT1, less than 50 nM.

As to `Cc1cccc(Cl)c1CNC(=O)c1cn2cc(-c3ccc(C4CCC(C(C)(C)C(=O)O)CC4)cc3)ccc2n1` (stereo not shown) [Compound 67, 2-((1s,4s)-4-(4-(2-((2-Chloro-6-methylbenzyl)carbamoyl)imidazo[1,2-a]pyridin-6-yl)phenyl)cyclohexyl)-2-methylpropanoic acid], the IC50 on human DGAT1 [2] is less than 25 nM; on mouse DGAT1 it was less than 50 nM.

Values taken from patent publication US9271969B2, “Compounds as inhibitors of diacylglycerol O-acyltransferase type 1 enzyme” (KAINOS MEDICINE, INC., priority 2012, dated 2016).
